The record followed here is patent US10174053B2, “2 substituted cephem compounds” (Glaxo Group Limited, priority 2012, dated 2019).

The structures appear in SMILES notation. Converted amounts (≈) assume the structure as drawn. Where two headings read alike, the source gives them in different places.

Holding throughout (test): In vitro antimicrobial activity, MIC by broth microdilution (CLSI)
Holding throughout (assay type): cell-based

One test has as its system A. baumannii JMI2346. To be noted: Acinetobacter baumannii. On the procedure: (§1) Compound (I) of the invention was evaluated for in vitro antimicrobial activity thereof.
(§2) Measurement of Minimum Inhibitory Concentration (MIC: μg/mL) was conducted according to CLSI (Clinical and Laboratory Standards Institute) method, and the amount of bacteria for inoculation was 5×10^5 cfu/mL, and cation-adjusted Iso-Sensitest broth containing human Apo-transferrin was used as a test medium, and the experiment was conducted using broth microdilution method. The bacteria used are listed below.

The subject of another test is A. baumannii JMI7. The settings on record: Acinetobacter baumannii. On the procedure:
as §1, §2

The test system of the next test is E. Coli JMI1890. The settings on record: Escherichia coli, read-out: Minimum Inhibitory Concentration (MIC) E. Coli JMI:1890. As to the method: as §1, §2
The next test concerns K. pneumoniae SR01358. To be noted: Klebsiella pneumoniae. As to the method:
as §1, §2

[1] abbreviates: JMI2346, OXA-51, TEM, ESBL and OXA-type carbapenemase producing strain, 5×10^5 cfu/mL, cation-adjusted Iso-Sensitest broth containing human Apo-transferrin, read-out: Minimum Inhibitory Concentration (MIC) A. baumannii JMI:2346.
The mark [2] stands for this setting: JMI7, PER-1, OXA-23, 51, ESBL and OXA-type carbapenemase producing strain, 5×10^5 cfu/mL, cation-adjusted Iso-Sensitest broth containing human Apo-transferrin, read-out: Minimum Inhibitory Concentration (MIC) A. baumannii JMI:7.
Where [3] appears, read: PER-1, TEM-1, ESBL producing strain, 5×10^5 cfu/mL, cation-adjusted Iso-Sensitest broth containing human Apo-transferrin.
[4] abbreviates: SR01358, KPC-2, ESBL and KPC-type carbapenemase producing strain, 5×10^5 cfu/mL, cation-adjusted Iso-Sensitest broth containing human Apo-transferrin, read-out: Minimum Inhibitory Concentration (MIC) K. pneumoniae SR01358.

As to `C[C@@H]1S[C@@H]2[C@H](NC(=O)/C(=N\OC(C)(C)C(=O)[O-])c3csc(N)n3)C(=O)N2C(C(=O)[O-])=C1C[N+]1(CCN2C(=O)c3cc(O)c(O)cc3C2=O)CCCC1.[Na+]` [Compound I-1], the MIC in the test on A. baumannii JMI2346 (setting [1]) was 16 µg/mL; with A. baumannii JMI7 (setting [2]) it was 1 µg/mL; in the test on E. Coli JMI1890 (setting [3]), 1 µg/mL; in the test with K. pneumoniae SR01358 (setting [4]), not above 0.031 µg/mL.

For `C[C@@H]1S[C@@H]2[C@H](NC(=O)/C(=N\OC(C)(C)C(=O)[O-])c3csc(N)n3)C(=O)N2C(C(=O)[O-])=C1C[N+]12CCC(CNC(=O)C(=O)c3ccc(O)c(O)c3Cl)(CC1)CC2.[Na+]` [Compound I-3], the MIC was 2 µg/mL in the test on A. baumannii JMI2346 (setting [1]), 0.5 µg/mL in the test on A. baumannii JMI7 (setting [2]), 0.5 µg/mL in the test with E. Coli JMI1890 (setting [3]) and not above 0.031 µg/mL in the test with K. pneumoniae SR01358 (setting [4]).

`C[C@@H]1S[C@@H]2[C@H](NC(=O)/C(=N\OC(C)(C)C(=O)[O-])c3csc(N)n3)C(=O)N2C(C(=O)[O-])=C1C[N+]1(CCn2[nH]c(=O)c3cc(O)c(O)cc3c2=O)CCCC1.[Na+]` [Compound I-4]: the MIC was 1 µg/mL in the test with A. baumannii JMI7 (setting [2]), 2 µg/mL in the test with E. Coli JMI1890 (setting [3]) and not above 0.031 µg/mL in the test with K. pneumoniae SR01358 (setting [4]).

Regarding `C[C@@H]1S[C@@H]2[C@H](NC(=O)/C(=N\OC(C)(C)C(=O)[O-])c3csc(N)n3)C(=O)N2C(C(=O)[O-])=C1C[N+]1(CCNC(=O)C(=O)c2cc(O)c(O)c(Cl)c2)CCCC1.[Na+]` [Compound I-8], the MIC with A. baumannii JMI2346 (setting [1]) was determined as 16 µg/mL; in the test with A. baumannii JMI7 (setting [2]) it was 1 µg/mL; in the test with E. Coli JMI1890 (setting [3]) it was 1 µg/mL; with K. pneumoniae SR01358 (setting [4]) it was 0.25 µg/mL.

In the case of `C[C@@H]1S[C@@H]2[C@H](NC(=O)/C(=N\OC(C)(C)C(=O)[O-])c3csc(N)n3)C(=O)N2C(C(=O)[O-])=C1C[N@+]12CCC[C@H]1CN(C(=O)C(=O)c1cc(O)c(O)c(Cl)c1)CC2.[Na+]` [Compound I-10], the MIC was 8 µg/mL with A. baumannii JMI2346 (setting [1]), 1 µg/mL with A. baumannii JMI7 (setting [2]), 1 µg/mL in the test on E. Coli JMI1890 (setting [3]) and not above 0.031 µg/mL in the test with K. pneumoniae SR01358 (setting [4]).

Consider `C[C@@H]1S[C@@H]2[C@H](NC(=O)/C(=N\O[C@@H](CC(=O)[O-])C(=O)[O-])c3csc(N)n3)C(=O)N2C(C(=O)[O-])=C1C[N@+]12CCC[C@H]1CN(C(=O)C(=O)c1cc(O)c(O)c(Cl)c1)CC2.[Na+].[Na+]` [Compound I-11], for which the MIC was 16 µg/mL in the test on A. baumannii JMI2346 (setting [1]), 2 µg/mL with A. baumannii JMI7 (setting [2]), 2 µg/mL in the test with E. Coli JMI1890 (setting [3]) and 0.063 µg/mL with K. pneumoniae SR01358 (setting [4]).

On to `C[C@@H]1S[C@@H]2[C@H](NC(=O)/C(=N\OC(C)(C)C(=O)[O-])c3csc(N)n3)C(=O)N2C(C(=O)[O-])=C1C[N@+]1(C)[C@@H]2CC[C@H]1C[C@@H](NC(=O)C(=O)c1cc(O)c(O)c(Cl)c1)C2.[Na+]` [Compound I-12], for which the MIC with A. baumannii JMI2346 (setting [1]) was 4 µg/mL; in the test on A. baumannii JMI7 (setting [2]), 1 µg/mL; in the test with E. Coli JMI1890 (setting [3]), 0.25 µg/mL; in the test with K. pneumoniae SR01358 (setting [4]) it was not above 0.031 µg/mL.

As to `C[C@@H]1S[C@@H]2[C@H](NC(=O)/C(=N\O[C@@H](CC(=O)[O-])C(=O)[O-])c3csc(N)n3)C(=O)N2C(C(=O)[O-])=C1C[N@+]1(C)[C@@H]2CC[C@H]1C[C@@H](NC(=O)C(=O)c1cc(O)c(O)c(Cl)c1)C2.[Na+].[Na+]` [Compound I-13], the MIC in the test on A. baumannii JMI2346 (setting [1]) worked out at 8 µg/mL; in the test with A. baumannii JMI7 (setting [2]), 2 µg/mL; with E. Coli JMI1890 (setting [3]) it was 1 µg/mL; with K. pneumoniae SR01358 (setting [4]) it was 0.063 µg/mL.

With `C[C@@H]1S[C@@H]2[C@H](NC(=O)/C(=N\OC(C)(C)C(=O)[O-])c3csc(N)n3)C(=O)N2C(C(=O)[O-])=C1C[N+]12CCC(CNC(=O)C(=O)c3cc(O)c(O)c(Cl)c3)(CC1)CC2.[Na+]` [Compound I-14], the MIC in the test on A. baumannii JMI2346 (setting [1]) was 8 µg/mL; in the test on A. baumannii JMI7 (setting [2]) it was 2 µg/mL; in the test on E. Coli JMI1890 (setting [3]), 1 µg/mL; with K. pneumoniae SR01358 (setting [4]), not above 0.031 µg/mL.

Turning to `C[C@@H]1S[C@@H]2[C@H](NC(=O)/C(=N\O[C@@H](CC(=O)[O-])C(=O)[O-])c3csc(N)n3)C(=O)N2C(C(=O)[O-])=C1C[N+]12CCC(CNC(=O)C(=O)c3cc(O)c(O)c(Cl)c3)(CC1)CC2.[Na+].[Na+]` [Compound I-15], the MIC in the test on A. baumannii JMI2346 (setting [1]) turned out to be 16 µg/mL; with A. baumannii JMI7 (setting [2]), 4 µg/mL; in the test on E. Coli JMI1890 (setting [3]), 1 µg/mL.

On to `C[C@@H]1S[C@@H]2[C@H](NC(=O)/C(=N\OC(C)(C)C(=O)[O-])c3csc(N)n3)C(=O)N2C(C(=O)[O-])=C1C[N+]12CCC(CC1)N(C(=O)C(=O)c1cc(O)c(O)c(Cl)c1)CC2.[Na+]` [Compound I-16], for which the MIC with A. baumannii JMI2346 (setting [1]) was 8 µg/mL; in the test on A. baumannii JMI7 (setting [2]) it was 1 µg/mL; in the test with E. Coli JMI1890 (setting [3]), 0.5 µg/mL; in the test with K. pneumoniae SR01358 (setting [4]), not above 0.031 µg/mL.

`C[C@@H]1S[C@@H]2[C@H](NC(=O)/C(=N\O[C@@H](CC(=O)[O-])C(=O)[O-])c3csc(N)n3)C(=O)N2C(C(=O)[O-])=C1C[N+]12CCC(CC1)N(C(=O)C(=O)c1cc(O)c(O)c(Cl)c1)CC2.[Na+].[Na+]` [Compound I-17]: the MIC in the test on A. baumannii JMI2346 (setting [1]) is 16 µg/mL; in the test with A. baumannii JMI7 (setting [2]) it was 4 µg/mL; in the test on E. Coli JMI1890 (setting [3]) it was 2 µg/mL; in the test on K. pneumoniae SR01358 (setting [4]), not above 0.031 µg/mL.

As for `C[C@@H]1S[C@@H]2[C@H](NC(=O)/C(=N\OC(C)(C)C(=O)[O-])c3csc(N)n3)C(=O)N2C(C(=O)O)=C1C[N@+]1(C)[C@@H]2CC[C@H]1C[C@@H](NC(=O)C(=O)c1ccc(O)c(O)c1Cl)C2` [Compound I-20], the MIC is 0.5 µg/mL (≈ 0.61 µM) in the test with A. baumannii JMI2346 (JMI2346, read-out: Minimum Inhibitory Concentration (MIC) A. baumannii JMI:2346); 0.125 µg/mL (≈ 0.152 µM) with A. baumannii JMI7 (JMI7, read-out: Minimum Inhibitory Concentration (MIC) A. baumannii JMI:7); 0.063 µg/mL (≈ 0.0768 µM) in the test with E. Coli JMI1890; not above 0.031 µg/mL in the test on K. pneumoniae SR01358 (SR01358, read-out: Minimum Inhibitory Concentration (MIC) K. pneumoniae SR01358).

Consider `C[C@@H]1S[C@@H]2[C@H](NC(=O)/C(=N\OC(C)(C)C(=O)[O-])c3csc(N)n3)C(=O)N2C(C(=O)O)=C1C[N+]1(CCNN2C(=O)c3cc(O)c(O)cc3C2=O)CCCC1` [Compound I-26], for which the MIC is 4 µg/mL (≈ 5.18 µM) with A. baumannii JMI2346 (setting [1]), 0.5 µg/mL (≈ 0.647 µM) with A. baumannii JMI7 (setting [2]), 0.5 µg/mL (≈ 0.647 µM) in the test with E. Coli JMI1890 (setting [3]) and not above 0.031 µg/mL with K. pneumoniae SR01358 (setting [4]).

For the molecule `C[C@@H]1S[C@@H]2[C@H](NC(=O)/C(=N\OC(C)(C)C(=O)[O-])c3csc(N)n3)C(=O)N2C(C(=O)O)=C1C[N+]1(CCON2C(=O)c3cc(O)c(O)cc3C2=O)CCCC1` [Compound I-27], the MIC with A. baumannii JMI2346 (setting [1]) is 4 µg/mL (≈ 5.17 µM); with A. baumannii JMI7 (setting [2]) it was 0.5 µg/mL (≈ 0.646 µM); with E. Coli JMI1890 (setting [3]), 0.5 µg/mL (≈ 0.646 µM); in the test on K. pneumoniae SR01358 (setting [4]) it was not above 0.031 µg/mL.

For `CC[N+](CC)(CCN1C(=O)c2ccc(O)c(O)c2C1=O)CC1=C(C(=O)O)N2C(=O)[C@@H](NC(=O)/C(=N\OC(C)(C)C(=O)[O-])c3csc(N)n3)[C@H]2S[C@H]1C` [Compound I-36], the MIC in the test with A. baumannii JMI2346 (setting [1]) came out at 4 µg/mL (≈ 5.26 µM); with A. baumannii JMI7 (setting [2]) it was 0.5 µg/mL (≈ 0.658 µM); in the test on E. Coli JMI1890 (setting [3]) it was 0.5 µg/mL (≈ 0.658 µM); in the test with K. pneumoniae SR01358 (setting [4]), 0.125 µg/mL (≈ 0.165 µM).

For `C[C@@H]1S[C@@H]2[C@H](NC(=O)/C(=N\OC(C)(C)C(=O)[O-])c3csc(N)n3)C(=O)N2C(C(=O)[O-])=C1C[N+]1(C)C[C@H]2CN(C(=O)c3cc(O)c(O)c(Cl)c3)C[C@H]2C1.[Na+]` (stereo partly shown) [Compound I-63], the MIC in the test on A. baumannii JMI7 (setting [2]) was 1 µg/mL; in the test with E. Coli JMI1890 (setting [3]) it was 1 µg/mL; with K. pneumoniae SR01358 (setting [4]) it was not above 0.031 µg/mL.

`C[C@@H]1S[C@@H]2[C@H](NC(=O)/C(=N\OC(C)(C)C(=O)[O-])c3csc(N)n3)C(=O)N2C(C(=O)O)=C1C[N+]1(CCNC(=O)c2cc(=O)c(O)c[nH]2)CCCC1` [Compound I-130]: the MIC was 8 µg/mL (≈ 10.9 µM) in the test on E. Coli JMI1890 (setting [3]) and not above 0.031 µg/mL in the test with K. pneumoniae SR01358 (setting [4]).

With `C[C@@H]1S[C@@H]2[C@H](NC(=O)/C(=N\OC(C)(C)C(=O)[O-])c3csc(N)n3)C(=O)N2C(C(=O)[O-])=C1C[N+]12CCC(CNC(=O)c3cc(=O)c(O)c[nH]3)(CC1)CC2.[Na+]` [Compound I-140], the MIC is 4 µg/mL in the test on A. baumannii JMI7 (setting [2]), 0.5 µg/mL with E. Coli JMI1890 (setting [3]) and not above 0.031 µg/mL in the test with K. pneumoniae SR01358 (setting [4]).
